Source: patent EP0479834B1, “COMPETITIVE ENZYME ASSAY FOR DETERMINATION OF PHOSPHOTHIOATE INSECTICIDES” (COMMONWEALTH SCIENTIFIC AND INDUSTRIAL RESEARCH ORGANISATION, priority 1989, dated 1991)

Columns and labels:
Type in all cases: binding
[1] = system: Antibody P11 (phosphorothioate-specific antibody; control pesticide pirimiphos-methyl); test: competition ELISA, assay format 1 (antibody on the solid phase, horseradish peroxidase-labelled phosphorothioate); settings: Antibody P11, assay format 1, control pesticide PY; 30 min incubation with enzyme conjugate
Method: (§1) The solid phase is coated with phosphorothioate-specific antibody. Preferentially the antibody is coated at 10µg/mL in 50mM sodium carbonate buffer, pH 9.6. Non-specific binding of immunoreactants is then minimized by treatment with a suitable protein or detergent, for example, 10mg/mL bovine serum albumin in 50mM sodium phosphate, pH 7.2 - 0.9% sodium chloride. The grain or food or other sample to be analyzed is extracted in neat methanol or ethanol, although other polar water-miscible solvents may be used; such as isopropanol, acetonitrile and acetone. Mixtures of water and these solvents may also be used. The grain, food or other extract is diluted five-fold in a protein and detergent-containing buffer (for example 10mg/mL bovine serum albumin or lmg/mL Teleostean fish skin gelatin in 0.05% (v/v) Tween in phosphate-buffered saline) applied to the solid phase and enzyme-labelled phosphorothioate (diluted similarly) is added immediately. A standard is prepared in methanol or ethanol and dilutions of this standard assayed simultaneously.
(§2) An incubation time of 30 min with chlorpyrifos-methyl (P9) or pirimiphos-methyl (P11) conjugated to horseradish peroxidase was used for the results shown in Table 1, together with 10 min chromogenic substrate (2,2'-azino-bis (3-ethyl benzthiazoline -6- sulfonic acid)) incubation time. The chromogen 3,3',5,5'-tetramethylbenzidine may also be used.
(§3) Analysis by this technique is based on the competition between phosphorothioate in the test sample and enzyme-labelled phosphorothioate for binding to phosphorothioate-specific antibody on the solid phase. There is a decrease in the binding of the enzyme-labelled phosphorothioate as the concentration of phosphorothioate increases in the test sample; this is manifest in decreasing absorbance of the coloured enzyme product. The concentration of phosphorothioate in an unknown sample may be determined by comparing the degree of inhibition of antibody binding caused by the addition of the sample extract with that resulting from the addition of known amounts of phosphorothioate. […]

[2] = system: Antibody F7 (phosphorothioate-specific antibody; control pesticide chlorpyrifos-methyl); test: competition ELISA, assay format 2 (pesticide-macromolecule conjugate on the solid phase, antibody in solution); settings: Antibody F7, assay format 2, control pesticide CP; 30 min antibody incubation
Method: The solid phase is coated with a pesticide-macromolecule conjugate. For the results listed in Table 1, the immunogen conjugate of chlorpyrifos-methyl (F7) was used. Following pretreatment to minimize non-specific binding of conjugate by treatment with a suitable protein or detergent, the sample to be analyzed is added. The grain, food or other sample may either be extracted in methanol, ethanol or other polar water-miscible solvent, or otherwise be extracted with a volatile organic solvent such as dichloromethane or acetone. The solvent may be removed by evaporation and the residue redissolved in a smaller volume of methanol. The extract or reconstituted residue is diluted in a protein and detergent - containing buffer and applied to the solid phase and antibody is added immediately. A standard is prepared in methanol and dilutions of this standard assayed simultaneously. Such antibody may either be enzyme-labelled by direct covalent association or a suitable amplification step used to detect binding of the antibody. Analysis by this technique is based on the competition between phosphorothioate in the test sample and solid phase- bound phosphorothioate, for binding to antibody in solution. There is a decrease in the binding of antibody as the concentration of organophosphate increases in the test sample; this is manifest in decreasing absorbance of the coloured enzyme product, in this example. The concentration of organophosphate may be assessed as described in assay format 1. Clean-up of the extracts was not necessary.
An antibody incubation time of 30 minutes was used, together with 20 min (2,2'-azino bis (3-ethylbenzthiazoline-6-sulfonic acid)) substrate incubation time. The overall assay time can be reduced to 5-10 minutes or increased to 18 hours for batchwise analysis of large numbers of (several hundred) samples.
The data shown in Table 1 are potencies relative to the control pesticide (determined as relative concentration yielding 50% inhibition of antibody binding). Absolute amounts of control pesticide yielding 50% inhibition of antibody binding in competition ELISA are: P9 (0.001 ng), F7 (50 ng), Pll (2 ng).

[3] = system: Antibody F9 (phosphorothioate-specific antibody; control pesticide chlorpyrifos-methyl); test: competition ELISA, assay format 1 (antibody on the solid phase, horseradish peroxidase-labelled phosphorothioate); settings: Antibody F9, assay format 1, control pesticide CP; 30 min incubation with enzyme conjugate
Method: as §1, §2, §3

SMILES	potencies relative to the control pesticide (relative concentration yielding 50% inhibition of antibody binding) [1]	potencies relative to the control pesticide (relative concentration yielding 50% inhibition of antibody binding) [2]	potencies relative to the control pesticide (relative concentration yielding 50% inhibition of antibody binding) [3]
CCOP(=S)(OCC)Oc1cc(C)nc(N(CC)CC)n1 [pirimiphos-ethyl]	2.9		
COP(=S)(OC)Oc1ccc([N+](=O)[O-])c(C)c1 [fenitrothion (FN), fenitrothion]		0.01	
COP(=S)(OC)Oc1ccc([N+](=O)[O-])cc1Cl [dicapthon]		0.01	
COP(=S)(OC)Oc1ccc([N+](=O)[O-])cc1 [methylparathion]		0.003	
CCN(CC)c1nc(C)cc(OP(=S)(OC)OC)n1 [pirimiphos-methyl (PY), pirimiphos-methyl]	1.0		
CCOP(=S)(OCC)Oc1nc(Cl)c(Cl)cc1Cl [chlorpyrifos-ethyl]		0.07	
COP(=S)(OC)Oc1nc(Cl)c(Cl)cc1Cl [chlorpyrifos-methyl (CP), chlorpyrifos-methyl]		1.0	1.0
